Values of other authors, collected in patent US20220265635A1, “TREATMENT OF NEUROLOGICAL DISEASE” (Aclipse One Inc., priority 2018, published 2022).

Test system: dopamine receptors
Conditions: background description; cited from earlier work

CN1CCc2cccc3c2[C@H]1Cc1ccc(O)c(O)c1-3 [(6aR)-6-methyl-5,6,6a,7-tetrahydro-4H-dibenzo[de,g]quinoline-10,11-diol, reference compound]
activity on dopamine receptors (in words): strong dopamine agonist
